Source: US12435059B2, “AMP-activated protein kinase inhibitors and methods of making and using the same” (The Regents of the University of Colorado, priority 2019, dated 2025)

Tests used:
Test in all cases: biochemical
Assay type in all cases: binding
[1] = molecular target: 468 kinases (Homo sapiens, UniProt Q9Y4K4); conditions: MAP4K5; read-out: % Inhibition @ 100 nM
[2] = molecular target: 468 kinases (Homo sapiens, UniProt P29317); conditions: EPHA2; read-out: % Inhibition @ 100 nM
[3] = molecular target: 468 kinases (Homo sapiens, UniProt P36888, D835V); conditions: FLT3(D835V); read-out: % Inhibition @ 100 nM
[4] = molecular target: 468 kinases (Homo sapiens, UniProt P12931); conditions: SRC; read-out: % Inhibition @ 100 nM
[5] = molecular target: 468 kinases (Homo sapiens, UniProt Q04759); conditions: PRKCQ; read-out: % Inhibition @ 100 nM
[6] = molecular target: 468 kinases (Homo sapiens, UniProt Q04771); conditions: ACVR1; read-out: % Inhibition @ 100 nM
[7] = molecular target: 468 kinases (Homo sapiens, UniProt Q9UQ88); conditions: CDC2L2; read-out: % Inhibition @ 100 nM
[8] = molecular target: 468 kinases (Homo sapiens, UniProt P22455); conditions: FGFR4; read-out: % Inhibition @ 100 nM
[9] = molecular target: 468 kinases (Homo sapiens, UniProt P06241); conditions: FYN; read-out: % Inhibition @ 100 nM
[10] = molecular target: 468 kinases (Homo sapiens, UniProt Q15569); conditions: TESK1; read-out: % Inhibition @ 100 nM
[11] = molecular target: 468 kinases (Homo sapiens, UniProt Q8WXR4); conditions: MYO3B; read-out: % Inhibition @ 100 nM
[12] = molecular target: 468 kinases (Homo sapiens, UniProt P42338); conditions: PIK3CB; read-out: % Inhibition @ 100 nM
[13] = molecular target: 468 kinases (Homo sapiens, UniProt P42684); conditions: ABL2; read-out: % Inhibition @ 100 nM
[14] = molecular target: 468 kinases (Homo sapiens, UniProt P08069); conditions: IGFIR; read-out: % Inhibition @ 100 nM
[15] = molecular target: 468 kinases (Homo sapiens, UniProt Q02156); conditions: PRKCE; read-out: % Inhibition @ 100 nM
[16] = molecular target: 468 kinases (Homo sapiens, UniProt P23443); conditions: S6K1; read-out: % Inhibition @ 100 nM
[17] = molecular target: 468 kinases (Homo sapiens, UniProt P10721); conditions: KIT; read-out: % Inhibition @ 100 nM
[18] = molecular target: 468 kinases (Homo sapiens, UniProt P07949, M918T); conditions: RET(M918T); read-out: % Inhibition @ 100 nM
[19] = molecular target: 468 kinases (Homo sapiens, UniProt Q86Y07); conditions: VRK2; read-out: % Inhibition @ 100 nM
[20] = molecular target: 468 kinases (Homo sapiens, UniProt P42336, E545A); conditions: PIK3CA(E545A); read-out: % Inhibition @ 100 nM
[21] = molecular target: 468 kinases (Homo sapiens, UniProt P31152); conditions: ERK4; read-out: % Inhibition @ 100 nM
[22] = molecular target: 468 kinases (Homo sapiens, UniProt P08922); conditions: ROS1; read-out: % Inhibition @ 100 nM
[23] = molecular target: 468 kinases (Homo sapiens, UniProt Q9UKI8); conditions: TLK1; read-out: % Inhibition @ 100 nM
[24] = molecular target: 468 kinases (Homo sapiens, UniProt Q9P286); conditions: PAK7; read-out: % Inhibition @ 100 nM
[25] = molecular target: 468 kinases (Homo sapiens, UniProt P23458); conditions: JAK1(JH1domain-catalytic); read-out: % Inhibition @ 100 nM
[26] = molecular target: 468 kinases (Homo sapiens, UniProt Q8IVW4); conditions: CDKL3; read-out: % Inhibition @ 100 nM
[27] = molecular target: 468 kinases (Homo sapiens, UniProt Q8IWQ3); conditions: BRSK2; read-out: % Inhibition @ 100 nM
[28] = molecular target: 468 kinases (Homo sapiens, UniProt O15264); conditions: p38-delta; read-out: % Inhibition @ 100 nM
[29] = molecular target: 468 kinases (Homo sapiens, UniProt Q9BYP7); conditions: WNK3; read-out: % Inhibition @ 100 nM
[30] = molecular target: 468 kinases (Homo sapiens, UniProt P29320); conditions: EPHA3; read-out: % Inhibition @ 100 nM
[31] = molecular target: 468 kinases (Homo sapiens, UniProt Q8WTQ7); conditions: GRK7; read-out: % Inhibition @ 100 nM
[32] = molecular target: 468 kinases (Homo sapiens, UniProt Q6PHR2); conditions: ULK3; read-out: % Inhibition @ 100 nM
[33] = molecular target: 468 kinases (Homo sapiens, UniProt P00533, G719S); conditions: EGFR(G719S); read-out: % Inhibition @ 100 nM

SMILES	inhibition at 0.1 µM [1] [%]	inhibition at 0.1 µM [2] [%]	inhibition at 0.1 µM [3] [%]	inhibition at 0.1 µM [4] [%]	inhibition at 0.1 µM [5] [%]	inhibition at 0.1 µM [6] [%]	inhibition at 0.1 µM [7] [%]	inhibition at 0.1 µM [8] [%]	inhibition at 0.1 µM [9] [%]	inhibition at 0.1 µM [10] [%]	inhibition at 0.1 µM [11] [%]	inhibition at 0.1 µM [12] [%]	inhibition at 0.1 µM [13] [%]	inhibition at 0.1 µM [14] [%]	inhibition at 0.1 µM [15] [%]	inhibition at 0.1 µM [16] [%]	inhibition at 0.1 µM [17] [%]	inhibition at 0.1 µM [18] [%]	inhibition at 0.1 µM [19] [%]	inhibition at 0.1 µM [20] [%]	also measured
CCN(CC)CCNC(=O)c1c(C)[nH]c(/C=C2\C(=O)Nc3ccc(CCC(N)=O)cc32)c1C [Compound No. 16, (Z)-5-((5-(3-Amino-3-oxopropyl)-2-oxoindolin-3-ylidene)methyl)-N-(2-(diethylamino)ethyl)-2,4-dimethyl-1H-pyrrole-3-carboxamide]	53	0	100	6	0	18	13	1	95	5	0	3	3	6	5	33	8	68	39	10	inhibition at 0.1 µM [21]: 4%; inhibition at 0.1 µM [22]: 0%; inhibition at 0.1 µM [23]: 0%; inhibition at 0.1 µM [24]: 11%; inhibition at 0.1 µM [25]: 10%; inhibition at 0.1 µM [26]: 0%; inhibition at 0.1 µM [27]: 25%; inhibition at 0.1 µM [28]: 0%; inhibition at 0.1 µM [29]: 7%; inhibition at 0.1 µM [30]: 14%; inhibition at 0.1 µM [31]: 76%; inhibition at 0.1 µM [32]: 25%; inhibition at 0.1 µM [33]: 21%
CCN(CC)CCNC(=O)c1c(C)[nH]c(/C=C2\C(=O)Nc3ccc(CCO)cc32)c1C [Compound No. 10, (Z)—N-(2-(Diethylamino)ethyl)-5-((5-(2-hydroxyethyl)-2-oxoindolin-3-ylidene)methyl)-2,4-dimethyl-1H-pyrrole-3-carboxamide]	52	2	100	15	0	0	1	0	0	10	0	0	0	0	0	37	80	65	0	3	inhibition at 0.1 µM [21]: 0%; inhibition at 0.1 µM [22]: 15%; inhibition at 0.1 µM [23]: 2%; inhibition at 0.1 µM [24]: 0%; inhibition at 0.1 µM [25]: 0%; inhibition at 0.1 µM [26]: 22%; inhibition at 0.1 µM [27]: 32%; inhibition at 0.1 µM [28]: 0%; inhibition at 0.1 µM [29]: 9%; inhibition at 0.1 µM [30]: 0%; inhibition at 0.1 µM [31]: 40%; inhibition at 0.1 µM [32]: 87%; inhibition at 0.1 µM [33]: 9%
